Laboratory results as given in ChEMBL document CHEMBL3217727, “Berberine azoles as antimicrobial agents: synthesis, biological evaluation and their interactions with human serum albumin” (Medchemcomm, 2013).
Converted amounts (≈) assume the structure as drawn.

What was measured:
[1] = tested on: Micrococcus luteus; assay: Antimicrobial activity against Micrococcus luteus ATCC 4698 after 24 hrs by microbroth dilution method; type: functional; conditions: NCTC 2665, 24 h
[2] = tested on: Cyberlindnera jadinii; assay: Antimicrobial activity against Candida utilis ATCC 9950 after 24 hrs by microbroth dilution method; type: functional; conditions: Williopsis jadinii, ATCC 9950, 24 h
[3] = tested on: Candida; assay: Antimicrobial activity against Candida mycoderma after 24 hrs by microbroth dilution method; type: functional
[4] = tested on: Saccharomyces cerevisiae; assay: Antimicrobial activity against Saccharomyces cerevisiae ATCC 9763 after 24 hrs by microbroth dilution method; type: functional; conditions: ATCC 9763, 24 h
[5] = tested on: Bacillus spizizenii; assay: Antimicrobial activity against Bacillus subtilis ATCC 6633 after 24 hrs by microbroth dilution method; type: functional; conditions: ATCC 6633, 24 h
[6] = tested on: Candida albicans; assay: Antimicrobial activity against Candida albicans ATCC 90029 after 24 hrs by microbroth dilution method; type: functional; conditions: ATCC 90029, 24 h
[7] = tested on: Pseudomonas aeruginosa; assay: Antimicrobial activity against Pseudomonas aeruginosa ATCC 27853 after 24 hrs by microbroth dilution method; type: functional; conditions: ATCC 27853, 24 h
[8] = tested on: Escherichia coli; assay: Antimicrobial activity against Escherichia coli […] after 24 hrs by microbroth dilution method; type: functional
[9] = tested on: Staphylococcus aureus; assay: Antimicrobial activity against methicillin-resistant Staphylococcus aureus N315 after 24 hrs by microbroth dilution method; type: functional; conditions: N315, 24 h
[10] = tested on: Staphylococcus aureus; assay: Antimicrobial activity against Staphylococcus aureus ATCC 25923 after 24 hrs by microbroth dilution method; type: functional; conditions: ATCC 25923, 24 h
[11] = tested on: Shigella dysenteriae; assay: Antimicrobial activity against Shigella dysenteriae ATCC 51252 after 24 hrs by microbroth dilution method; type: functional; conditions: ATCC 51252, 24 h
[12] = tested on: Proteus vulgaris; assay: Antimicrobial activity against Proteus vulgaris ATCC 8427 after 24 hrs by microbroth dilution method; type: functional; conditions: ATCC 8427, 24 h
[13] = molecular target: Albumin (Homo sapiens, UniProt P02768); assay: Binding affinity to human serum albumin at 0.2 to 1.8 10^-5 mol/L at pH 7.4 at 294 K by UV-vis spectroscopic analysis; type: ADME; conditions: isolated protein
[14] = tested on: Proteus vulgaris; assay: Ratio of norfloxacin MIC to compound MIC for Proteus vulgaris ATCC 8427; type: functional
[15] = tested on: Proteus vulgaris; assay: Ratio of berberine MIC to compound MIC for Proteus vulgaris ATCC 8427; type: functional
[16] = tested on: Proteus vulgaris; assay: Ratio of chloromycin MIC to compound MIC for Proteus vulgaris ATCC 8427; type: functional
[17] = tested on: Shigella dysenteriae; assay: Ratio of chloromycin MIC to compound MIC for Shigella dysenteriae ATCC 51252; type: functional
[18] = tested on: Shigella dysenteriae; assay: Ratio of berberine MIC to compound MIC for Shigella dysenteriae ATCC 51252; type: functional

Sequence of Albumin (P02768 whole entry): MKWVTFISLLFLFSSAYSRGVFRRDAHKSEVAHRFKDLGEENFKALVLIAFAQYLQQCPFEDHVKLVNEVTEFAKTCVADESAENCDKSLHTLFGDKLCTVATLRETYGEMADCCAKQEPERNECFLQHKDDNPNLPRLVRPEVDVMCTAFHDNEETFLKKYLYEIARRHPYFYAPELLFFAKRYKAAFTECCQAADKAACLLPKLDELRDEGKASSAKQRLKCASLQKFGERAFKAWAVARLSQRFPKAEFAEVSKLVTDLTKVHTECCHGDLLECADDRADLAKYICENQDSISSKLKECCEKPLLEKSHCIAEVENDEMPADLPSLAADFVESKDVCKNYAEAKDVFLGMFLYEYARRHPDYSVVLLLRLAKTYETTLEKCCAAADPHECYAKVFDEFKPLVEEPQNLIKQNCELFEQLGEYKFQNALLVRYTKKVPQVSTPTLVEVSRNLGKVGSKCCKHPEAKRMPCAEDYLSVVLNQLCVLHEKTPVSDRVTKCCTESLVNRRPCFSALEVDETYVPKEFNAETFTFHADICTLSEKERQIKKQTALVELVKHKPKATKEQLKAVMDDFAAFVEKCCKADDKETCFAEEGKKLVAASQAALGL

SMILES	MIC [1] [µg/mL]	MIC80 [2] [µg/mL]	MIC80 [3] [µg/mL]	MIC80 [4] [µg/mL]	MIC [5] [µg/mL]	MIC80 [6] [µg/mL]	MIC [7] [µg/mL]	MIC [8] [µg/mL]	MIC [9] [µg/mL]	MIC [10] [µg/mL]	MIC [11] [µg/mL]	MIC [12] [µg/mL]	Activity [13]	Ratio [14]	Ratio [15]	Ratio [16]	Ratio [17]	Ratio [18]
COc1ccc2cc3[n+](cc2c1OCCN(CCn1cncn1)Cc1ccc(Cl)c(Cl)c1)CCc1cc2c(cc1-3)OCO2.[Cl-]	16	32	4	32	8	8												
O=C(N[C@H](CO)[C@H](O)c1ccc([N+](=O)[O-])cc1)C(Cl)Cl [CHLORAMPHENICOL]	8 (≈ 24.8 µM)				32 (≈ 99 µM)													
Clc1ccccc1CN(CCBr)CCn1cncn1	64 (≈ 186 µM)	128 (≈ 372 µM)	256 (≈ 745 µM)	256 (≈ 745 µM)	256 (≈ 745 µM)	64 (≈ 186 µM)												
Fc1ccc(CN(CCBr)CCSc2nc3ccccc3[nH]2)c(F)c1	> 512	512 (≈ 1200 µM)	> 512	512 (≈ 1200 µM)	> 512	> 512	> 512	> 512	> 512	> 512	> 512	> 512						
Clc1ccc(CN(CCBr)CCn2cncn2)cc1	512 (≈ 1490 µM)	128 (≈ 372 µM)	256 (≈ 745 µM)	64 (≈ 186 µM)	256 (≈ 745 µM)	128 (≈ 372 µM)												
COc1ccc2cc3[n+](cc2c1OCCN(CCn1cncn1)Cc1ccc(F)cc1F)CCc1cc2c(cc1-3)OCO2.[Cl-]	8	8	2	32	8	4							Active	4	64	16		
OC(Cn1cncn1)(Cn1cncn1)c1ccc(F)cc1F [FLUCONAZOLE]		8 (≈ 26.1 µM)	4 (≈ 13.1 µM)	16 (≈ 52.2 µM)		1 (≈ 3.27 µM)												
COc1ccc2cc3[n+](cc2c1OCCN(CCn1cncn1)Cc1ccccc1F)CCc1cc2c(cc1-3)OCO2.[Cl-]	8	16	2	16	8	4												
COc1ccc2cc3[n+](cc2c1OC)CCc1cc2c(cc1-3)OCO2 [BERBERINE]	> 512	256	128	128	> 512	> 512												
COc1ccc2cc3[n+](cc2c1OCCN(CCn1cnc2cc(C)c(C)cc21)Cc1ccc(F)cc1F)CCc1cc2c(cc1-3)OCO2.[Cl-]	16	16	16	16	16	32	8	32	32	32	4	8					8	64
Fc1ccc(CN(CCBr)CCn2nnc3ccccc32)c(F)c1	256 (≈ 648 µM)	256 (≈ 648 µM)	> 512	256 (≈ 648 µM)	256 (≈ 648 µM)	> 512	128 (≈ 324 µM)	128 (≈ 324 µM)	128 (≈ 324 µM)	256 (≈ 648 µM)	64 (≈ 162 µM)	256 (≈ 648 µM)						
COc1ccc2cc3[n+](cc2c1OCCN(CCn1nnc2ccccc21)Cc1ccc(F)cc1F)CCc1cc2c(cc1-3)OCO2.[Cl-]	128	32	> 512	16	128	> 512	64	128	64	64	32	128						
Fc1ccc(CN(CCBr)CCn2cncn2)c(F)c1	32 (≈ 92.7 µM)	256 (≈ 742 µM)	256 (≈ 742 µM)	128 (≈ 371 µM)	256 (≈ 742 µM)	32 (≈ 92.7 µM)												
Clc1cccc(CN(CCBr)CCn2cncn2)c1	64 (≈ 186 µM)	256 (≈ 745 µM)	256 (≈ 745 µM)	128 (≈ 372 µM)	256 (≈ 745 µM)	64 (≈ 186 µM)												
CCn1cc(C(=O)O)c(=O)c2cc(F)c(N3CCNCC3)cc21 [NORFLOXACIN]	2 (≈ 6.26 µM)				1 (≈ 3.13 µM)													
COc1ccc2cc3[n+](cc2c1OCCN(CCn1cnc2ccccc21)Cc1ccc(F)cc1F)CCc1cc2c(cc1-3)OCO2.[Cl-]	16	16	32	32	32	32	16	32	32	16	8	32						
COc1ccc2cc3[n+](cc2c1OCCN(CCn1cncn1)Cc1cccc(Cl)c1)CCc1cc2c(cc1-3)OCO2.[Cl-]	32	8	4	32	16	16												
Fc1ccc(CN(CCBr)CCn2cnc3ccccc32)c(F)c1	256 (≈ 649 µM)	128 (≈ 325 µM)	64 (≈ 162 µM)	128 (≈ 325 µM)	256 (≈ 649 µM)	128 (≈ 325 µM)	128 (≈ 325 µM)	512 (≈ 1300 µM)	256 (≈ 649 µM)	128 (≈ 325 µM)	64 (≈ 162 µM)	512 (≈ 1300 µM)						
COc1ccc2cc3[n+](cc2c1OCCN(CCn1cncn1)Cc1ccc(Cl)cc1)CCc1cc2c(cc1-3)OCO2.[Cl-]	16	16	32	32	8	32												
Clc1ccc(CN(CCBr)CCn2cncn2)c(Cl)c1	32 (≈ 84.6 µM)	256 (≈ 677 µM)	256 (≈ 677 µM)	256 (≈ 677 µM)	256 (≈ 677 µM)	32 (≈ 84.6 µM)												
COc1ccc2cc3[n+](cc2c1OCCN(CCn1cncn1)Cc1cccc(F)c1)CCc1cc2c(cc1-3)OCO2.[Cl-]	16	8	4	16	8	4												
COc1ccc2cc3[n+](cc2c1OCCN(CCSc1nc2ccccc2[nH]1)Cc1ccc(F)cc1F)CCc1cc2c(cc1-3)OCO2.[Cl-]	128	64	128	64	64	64	64	32	64	32	128	64						
COc1ccc2cc3[n+](cc2c1OCCN(CCn1ccnc1)Cc1ccc(F)cc1F)CCc1cc2c(cc1-3)OCO2.[Cl-]	32	32	32	32	16	32	16	32	16	8	16	32						
Cc1cc2ncn(CCN(CCBr)Cc3ccc(F)cc3F)c2cc1C	64 (≈ 152 µM)	128 (≈ 303 µM)	64 (≈ 152 µM)	256 (≈ 606 µM)	32 (≈ 75.8 µM)	128 (≈ 303 µM)	64 (≈ 152 µM)	128 (≈ 303 µM)	128 (≈ 303 µM)	64 (≈ 152 µM)	16 (≈ 37.9 µM)	128 (≈ 303 µM)						
Fc1cccc(CN(CCBr)CCn2cncn2)c1	64 (≈ 196 µM)	256 (≈ 782 µM)	256 (≈ 782 µM)	128 (≈ 391 µM)	256 (≈ 782 µM)	32 (≈ 97.8 µM)												
COc1ccc2cc3[n+](cc2c1OCCN(CCn1cncn1)Cc1ccccc1Cl)CCc1cc2c(cc1-3)OCO2.[Cl-]	32	32	8	16	8	16												
COc1ccc2cc3[n+](cc2c1OCCN(CCn1cncn1)Cc1ccc(Cl)cc1Cl)CCc1cc2c(cc1-3)OCO2.[Cl-]	16	16	4	16	8	4												
Clc1ccc(CN(CCBr)CCn2cncn2)cc1Cl	32 (≈ 84.6 µM)	64 (≈ 169 µM)	256 (≈ 677 µM)	128 (≈ 339 µM)	256 (≈ 677 µM)	32 (≈ 84.6 µM)												
Fc1ccc(CN(CCBr)CCn2ccnc2)c(F)c1	64 (≈ 186 µM)	64 (≈ 186 µM)	32 (≈ 93 µM)	128 (≈ 372 µM)	128 (≈ 372 µM)	64 (≈ 186 µM)	32 (≈ 93 µM)	128 (≈ 372 µM)	64 (≈ 186 µM)	64 (≈ 186 µM)	128 (≈ 372 µM)	256 (≈ 744 µM)						
Fc1ccccc1CN(CCBr)CCn1cncn1	64 (≈ 196 µM)	128 (≈ 391 µM)	256 (≈ 782 µM)	64 (≈ 196 µM)	256 (≈ 782 µM)	32 (≈ 97.8 µM)												
